Reference: US20230105212A1, “BIPHENYL DERIVATIVE INHIBITOR, PREPARATION METHOD THEREFOR AND USE THEREOF” (SHANGHAI HANSOH BIOMEDICAL CO., LTD., priority 2020, published 2023)
Read-outs that look alike come from different tables or passages of the source.

Experiments:
human PD-L1 protein = biological target: T1, human PD-L1 protein (Homo sapiens, UniProt Q9NZQ7); experiment: Thermal shift: melting temperature of PD-L1 protein; type: binding; details: read-out: ΔTm (° C.)
T1 construct: purchased Acro Biosystems PD1-H5229
Experimental: Test Embodiment 4. Test of Combination of the Compounds of the Present Disclosure to Improve the Stability (Melting Temperature) of PD-L1 Protein Experimental purpose: To test the ability of compounds to enhance the stability of PD-L1 protein and increase the melting temperature of the protein. Experimental method: […] A solution containing […] HEPES, SYPRO Orange, and 150 mM NaCl was prepared as experimental buffer, and human PD-L1 protein was added at a final concentration of 2 μM. […] PCR tube was put into the PCR machine, and the melt curve function was selected to detect the melting temperature of PD-L1 protein in different treatment groups (heated from 25° C. to 95° C., 0.03° C./s). The experimental data file of the PCR instrument was imported into the thermal shift software to obtain the melting temperature (Tm) of each treatment group, and the Tm of the DMSO vehicle control group was subtracted to obtain the change value (ΔTm) of the melting temperature, as shown in the following table: […]

[1] = biological target: T2, PD-L1 protein on the surface of MC38-hPDL1 tumor cells (Homo sapiens, UniProt Q9NZQ7); experiment: Induction of endocytosis of PD-L1 on the surface of tumor cells (flow cytometry); type: cell-based; details: 16 hours incubation; for Emax: MC38-hPDL1 cells, read-out: MC38 maximum endocytosis rate; for IC50: inducing endocytosis of PD-L1, MC38-hPDL1 cells, read-out: MC38 IC50
T2 construct: expressed in transfected cells; host or cells: MC38-hPDL1 (mouse colon cancer cells)
Description: Test Embodiment 2. Test of the Activity of Compounds of the Present Disclosure on Inducing the Endocytosis of PD-L1 Protein on the Surface of Tumor Cells
Experimental purpose: The purpose of this test embodiment was to test the activity of the compound on inducing the endocytosis of PD-L1 on the surface of tumor cells.
Experimental method: In order to test the activity of the compound on inducing the endocytosis of PD-L1, in this experiment, the activity of the compound on inducing the endocytosis of PD-L1 was tested by detecting the change degree of PD-L1 on the tumor cell surface with fluorescently labeled anti-PD-L1 antibody, and the IC50 of activity of the compound on inducing the endocytosis of PD-L1 was obtained.
The mouse colon cancer cells MC38-hPDL1 with high expression of hPD-L1 were collected, and adjusted to a suitable density and plated in a 24-well plate, and placed in a 37° C., 5% CO2 incubator to adhere overnight. Compounds were prepared into different concentrations by medium and added to a 24-well plate, and a vehicle control well was set up. After the cells were incubated in a 37° C., 5% CO2 incubator for 16 hours, the 24-well plate was taken out, and MC38-hPDL1 cells with different treatments in the plate were collected. After the cells were washed once with FACS buffer (PBS containing 0.5% BSA), and the cells were prepared to an appropriate density with FACS buffer. PE Mouse Anti-Human CD274 antibody (BD Pharmingen #557924) was added, and the cells were shaken at room temperature and incubated for 30 minutes without light, then the cells were washed twice with FACS buffer, resuspended in 100 μL of PBS, and a flow cytometer was used to detect the fluorescent signal on the cell surface, and the isotype control was set as a negative control.
The endocytosis rate of the compounds was calculated from the fluorescence signals of different treatment groups, and the compound concentration and endocytosis rate were fitted by nonlinear regression using GraphPad Prism software, and IC50 values were obtained, as shown in Table 2.

human PD-1/PD-L1 binding = biological target: T3, human PD-1/PD-L1 binding (Homo sapiens, UniProt Q9NZQ7); experiment: Inhibition of human PD-1/PD-L1 binding (TR-FRET/HTRF); details: TR-FRET, PD-L1-His and PD-1-Fc; read-out: PD-1/PD-L1 binding IC50
T3 construct: PD-L1-His protein (19 to 238 amino acids) (Abcam #ab167713); purchased Abcam (PD-L1-His); R&D (PD-1-Fc) ab167713; 1086-PD
In short: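 PD-L1-His (aa 19–238, diluted to 10 nM) and PD-1-Fc (aa 25–167, diluted to 20 nM) incubated with compounds (10 μM or 1 μM top, 3-fold, 11 doses) 60 min at room temperature, then anti-6HIS Eu cryptate/anti-human IgG-XL665 added for 3 h RT or overnight 4 °C. HTRF 665/620 nm ratio gave inhibition and IC50.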

[2] = compound 10 μM, PD-L1 protein 2 μM, Tm minus DMSO vehicle control

T2 sequence (Q9NZQ7 19-290): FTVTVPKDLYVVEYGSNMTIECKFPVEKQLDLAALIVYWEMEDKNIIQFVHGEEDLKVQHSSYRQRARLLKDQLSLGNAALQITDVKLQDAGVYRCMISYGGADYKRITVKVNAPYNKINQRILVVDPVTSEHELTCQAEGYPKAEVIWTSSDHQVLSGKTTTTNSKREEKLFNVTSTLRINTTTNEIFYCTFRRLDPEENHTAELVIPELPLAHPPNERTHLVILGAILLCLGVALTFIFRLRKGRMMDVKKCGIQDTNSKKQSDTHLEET
T1 sequence (Q9NZQ7 19-238 limits assumed): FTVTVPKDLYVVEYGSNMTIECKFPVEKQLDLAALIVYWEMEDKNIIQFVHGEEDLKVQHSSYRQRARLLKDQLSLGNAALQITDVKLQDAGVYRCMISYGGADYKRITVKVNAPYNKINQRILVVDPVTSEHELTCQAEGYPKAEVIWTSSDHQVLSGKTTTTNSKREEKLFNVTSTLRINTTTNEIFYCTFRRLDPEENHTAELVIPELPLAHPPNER
T3 sequence (Q9NZQ7 19-238): as the sequence (Q9NZQ7 19-238 limits assumed) above

COc1nc(-c2cccc(-c3cccc(NC(=O)c4nc5c(n4C4CC4)CCN(C)C5)c3Cl)c2Cl)ccc1CN[C@H]1CCOC[C@@H]1O (relative stereo) [Embodiment 244, 1-Cyclopropyl-N-(2,2′-dichloro-3′-(5-(((trans-3-hydroxytetrahydro-2H-pyran-4-yl)amino)methyl)-6-methoxypyridin-2-yl)-[1,1′-biphenyl]-3-yl)-5-methyl-4,5,6,7-tetrahydro-1H-imidazo[4,5-c]pyridine-2-carboxamide]
ΔTm at 10 µM (human PD-L1 protein; [2]): 11.4 °C | Emax [1]: 94%

COc1cc(NCc2cnc(C(=O)Nc3cccc(-c4cccc(NC(=O)c5nc6c(n5C)CCNC6)c4Cl)c3Cl)cc2OC)ccn1 [Embodiment 81, N-(2,2′-Dichloro-3′-(4-methoxy-5-(((2-methoxypyridin-4-yl)amino)methyl)picolinamido)-[1,1′-biphenyl]-3-yl)-1-methyl-4,5,6,7-tetrahydro-1H-imidazo[4,5-c]pyridine-2-carboxamide]
Emax [1]: 86% | IC50 [1]: 5 nM | IC50 (human PD-1/PD-L1 binding): 2.4 nM

CCN1CCc2c(nc(C(=O)Nc3cccc(-c4cccc(NC(=O)c5cc(OC)c(CNc6ccnc(OC)c6)cn5)c4Cl)c3Cl)n2C)C1 [Embodiment 82, N-(2,2′-Dichloro-3′-(4-methoxy-5-(((2-methoxypyridin-4-yl)amino)methyl)picolinamido)-[1,1′-biphenyl]-3-yl)-5-ethyl-1-methyl-4,5,6,7-tetrahydro-1H-imidazo[4,5-c]pyridine-2-carboxamide]
Emax [1]: 85% | IC50 [1]: 12 nM | IC50 (human PD-1/PD-L1 binding): 3.9 nM

COc1cc(C(=O)Nc2cccc(-c3cccc(NC(=O)c4nc5c(n4C)CCN(C)C5)c3Cl)c2C)ncc1CNc1cc(C)ncn1 [Embodiment 91, N-(2-Chloro-3′-(4-methoxy-5-(((6-methylpyrimidin-4-yl)amino)methyl)picolinamido)-2′-methyl-[1,1′-biphenyl]-3-yl)-1,5-dimethyl-4,5,6,7-tetrahydro-1H-imidazo[4,5-c]pyridine-2-carboxamide]
ΔTm at 10 µM (human PD-L1 protein; [2]): 10.3 °C | Emax [1]: 81% | IC50 [1]: 14 nM

COc1cc(C(=O)Nc2cccc(-c3cccc(NC(=O)c4nc5c(n4C)CCN(C)C5)c3Cl)c2C)ncc1CNc1ccc(C)nc1 [Embodiment 92, N-(2-Chloro-3′-(4-methoxy-5-(((6-methylpyridin-3-yl)amino)methyl)picolinamido)-2′-methyl-[1,1′-biphenyl]-3-yl)-1,5-dimethyl-4,5,6,7-tetrahydro-1H-imidazo[4,5-c]pyridine-2-carboxamide]
ΔTm at 10 µM (human PD-L1 protein; [2]): 10.5 °C | Emax [1]: 83% | IC50 [1]: 9 nM

COc1cc(C(=O)Nc2cccc(-c3cccc(NC(=O)c4nc5c(n4C)CCN(C)C5)c3Cl)c2C)ncc1CN[C@H]1CCCNC1=O [Embodiment 98, (S)—N-(2-Chloro-3′-(4-methoxy-5-(((2-carbonylpiperidin-3-yl)amino)methyl)picolinamido)-2′-methyl-[1,1′-biphenyl]-3-yl)-1,5-dimethyl-4,5,6,7-tetrahydro-1H-imidazo[4,5-c]pyridine-2-carboxamide]
Emax [1]: 93% | IC50 [1]: 5.6 nM | IC50 (human PD-1/PD-L1 binding): 6.3 nM

COc1cc(C(=O)Nc2cccc(-c3cccc(NC(=O)c4nc5c(n4C)CCN(C)C5)c3Cl)c2C)ncc1CNC1(C)COC1 [Embodiment 99, N-(2-Chloro-3′-(4-methoxy-5-(((3-methyloxetan-3-yl)amino)methyl)picolinamido)-2′-methyl-[1,1′-biphenyl]-3-yl)-1,5-dimethyl-4,5,6,7-tetrahydro-1H-imidazo[4,5-c]pyridine-2-carboxamide]
Emax [1]: 91% | IC50 [1]: 3.9 nM | IC50 (human PD-1/PD-L1 binding): 4.4 nM

COc1nc(-c2cccc(-c3cccc(NC(=O)c4nc5c(n4C)CCN(C)C5)c3Cl)c2Cl)ccc1CN[C@@H]1CCOC[C@@H]1F [Embodiment 115, N-(2,2′-Dichloro-3′-(5-((((3R,4R)-3-fluorotetrahydro-2H-pyran-4-yl)amino)methyl)-6-methoxypyridin-2-yl)-[1,1′-biphenyl]-3-yl)-1,5-dimethyl-4,5,6,7-tetrahydro-1H-imidazo[4,5-c]pyridine-2-carboxamide]
ΔTm at 10 µM (human PD-L1 protein): 12.7 °C | Emax [1]: 93% | IC50 [1]: 5.3 nM

COc1nc(-c2cccc(-c3cccc(NC(=O)c4nc5c(n4C)CCN(C)C5)c3Cl)c2Cl)ccc1CN1CC(CC#N)C1 [Embodiment 182, N-(2,2′-Dichloro-3′-(5-((3-(cyanomethyl)azetidin-1-yl)methyl)-6-methoxypyridin-2-yl)-[1,1′-biphenyl]-3-yl)-1,5-dimethyl-4,5,6,7-tetrahydro-1H-imidazo[4,5-c]pyridine-2-carboxamide]
ΔTm at 10 µM (human PD-L1 protein; [2]): 16.3 °C | Emax [1]: 97%

COc1nc(-c2cccc(-c3cccc(NC(=O)c4nc5c(n4C)CCN(C)C5)c3Cl)c2Cl)ccc1CN1CC2(C1)CN(C(=O)C1CC1)C2 [Embodiment 187, N-(2,2′-Dichloro-3′-(5-((6-(cyclopropylcarbonyl)-2,6-diazaspiro[3.3]heptan-2-yl)methyl)-6-methoxypyridin-2-yl)-[1,1′-biphenyl]-3-yl)-1,5-dimethyl-4,5,6,7-tetrahydro-1H-imidazo[4,5-c]pyridine-2-carboxamide]
ΔTm at 10 µM (human PD-L1 protein; [2]): 21.1 °C | Emax [1]: 95% | IC50 [1]: 1.1 nM

COc1nc(-c2cccc(-c3cccc(NC(=O)c4nc5c(n4C)CCN(C)C5)c3Cl)c2Cl)ccc1CN1CC2(C1)CN(C(=O)C(F)(F)F)C2 [Embodiment 189, N-(2,2′-Dichloro-3′-(6-methoxy-5-((6-(2,2,2-trifluoroacetyl)-2,6-diazaspiro[3.3]heptan-2-yl)methyl)pyridin-2-yl)-[1,1′-biphenyl]-3-yl)-1,5-dimethyl-4,5,6,7-tetrahydro-1H-imidazo[4,5-c]pyridine-2-carboxamide]
ΔTm at 10 µM (human PD-L1 protein; [2]): 19.5 °C | Emax [1]: 96%

COc1nc(-c2cccc(-c3cccc(NC(=O)c4nc5c(n4C)CCN(C)C5)c3Cl)c2Cl)ccc1CN1CC2(CCN(C(=O)C(C)C)C2)C1 [Embodiment 196, N-(2,2′-Dichloro-3′-(5-((6-isobutyryl-2,6-diazaspiro[3.4]octan-2-yl)methyl)-6-methoxypyridin-2-yl)-[1,1′-biphenyl]-3-yl)-1,5-dimethyl-4,5,6,7-tetrahydro-1H-imidazo[4,5-c]pyridine-2-carboxamide]
ΔTm at 10 µM (human PD-L1 protein; [2]): 12.4 °C | Emax [1]: 96%

COc1nc(-c2cccc(-c3cccc(NC(=O)c4nc5c(n4C)CCN(C)C5)c3Cl)c2Cl)ccc1CN1CC2CC(C1)N2C(=O)CC#N [Embodiment 208, N-(2,2′-Dichloro-3′-(5-((6-(2-cyanoacetyl)-3,6-diazabicyclo[3.1.1]heptan-3-yl)methyl)-6-methoxypyridin-2-yl)-[1,1′-biphenyl]-3-yl)-1,5-dimethyl-4,5,6,7-tetrahydro-1H-imidazo[4,5-c]pyridine-2-carboxamide]
Emax [1]: 81% | IC50 (human PD-1/PD-L1 binding): 9 nM

COC(=O)[C@H](CO)NCc1cnc(-c2cccc(-c3cccc(NC(=O)c4nc5c(n4C)CCN(C)C5)c3Cl)c2Cl)nc1OC [Embodiment 227, Methyl ((2-(2,2′-dichloro-3′-(1,5-dimethyl-4,5,6,7-tetrahydro-1H-imidazo[4,5-c]pyridine-2-carboxamido)-[1,1′-biphenyl]-3-yl)-4-methoxypyrimidin-5-yl)methyl)-L-serinate]
ΔTm at 10 µM (human PD-L1 protein; [2]): 11.9 °C
